# Source: US10792236B2, “Dentifrice comprising zinc-amino acid complex” (Colgate-Palmolive Company, priority 2012, dated 2020)
# Several values for one entry are separate records, joined by “and”; a condition that tells them apart may be missing. Identical values can stand only once.
# What was measured:
# [1] = pH of ZLC neat solution and final diluted samples; type: physicochemical; conditions: for final pH value: diluted sample
# Experimental: (§1) A neat solution of ZLC is prepared by 1), reacting 0.5 mole of ZnO powder with 1 mole of lysine HCl in 1 liter of water at room temperature for about 2 hours, and 2) collecting the supernatant through centrifugation followed by filtration using a 0.45 micron membrane. The neat solution has a zinc concentration of 2.39% by weight, and a pH of about 7.03.
# (§2) Dilution experiment is conducted by mixing the neat solution with deionized water. The neat solution is diluted by 2×, 4×, 6×, 7×, 8×, 10×, 12×, 16×, 20×, 24×, 28×, and 32×, corresponding to initial zinc concentrations of 1.20%, 0.598%, 0.398%, 0.341%, 0.299%, 0.239%, 0.199%, 0.149%, 0.120%, 0.0996%, 0.0854%, 0.0747%, by weight, respectively. The diluted samples are kept at 37° C., and the rates at which flocculation/precipitation occurred are monitored.
# pH values of final diluted samples are suitable for oral care applications. […] These pH values were well within the range of 5.5 to 10, which defines the suitable range for oral care formulations.
# [2] = Dilution experiment of ZLC neat solution: visible flocculation/precipitation at 37° C.; type: physicochemical
# Experimental: Various dilutions of ZLC are prepared to evaluate its efficiency in producing visible precipitates and/or flocculation, which can be delivered in situ onto an oral surface or into a dental opening, such as open tubules.
# as §1, §2
# [3] = Deposition/occlusion assay on dentine slices, confocal imaging; parameters: species or system human
# Experimental: The deposition/occlusion assay is conducted using human dentine slices and the neat solution of Example 5. The dentine slices were prepared by cutting human tooth into thin dentine sections of about 800 microns in thickness, choosing a test side, sanding said test side using a sandpaper of about 600 grit, polishing said test side using a Buehler polishing cloth and 5 micron Buehler aluminum oxide, acid-etching said dentine section in 1% (by weight) citric acid solution for about 20 seconds, sonicating said dentine section for 10 minutes, and storing said dentine section in phosphate buffered saline (PBS, pH 7.4).
# For treatment, the neat solution is diluted 16-fold with water, yielding a treatment solution with initial zinc concentration of about 0.149% by weight. The dentine section is immersed in the treatment solution for 1 hour at 37° C. The treated dentine section is then removed from the treatment solution, and rinsed 4 times, each time with 1 mL of PBS. The dentine section is then dried using a paper-based tissue and examined under confocal microscope in both XYZ and XYZ modes. Subsequent treatments are conducted in the same manner.
# Dentine sections, as prepared in Example 6, are repeatedly treated with ZLC dilutions with initial zinc concentration of 0.0747% by weight. […] The dentine section is examined under the confocal microscope after each treatment.
substance,measurement,setting,value
[Zn(C6H14N2O2)2Cl]^+ Cl^− [ZLC],final pH value,[1]; initial zinc concentration 0.0747%,7.99
same,final pH value,[1]; initial zinc concentration 0.0854%,8.13
same,final pH value,[1]; initial zinc concentration 0.0996%,8.11
same,final pH value,[1]; initial zinc concentration 0.120%,7.97
same,final pH value,[1]; initial zinc concentration 0.149%,7.99
same,final pH value,[1]; initial zinc concentration 0.199 wt %,6.80
same,final pH value,[1]; initial zinc concentration 0.239%,6.70
same,pH,"[1]; neat solution, zinc 2.39% by weight",about 7.03
same,samples with flocculation and/or precipitation,[2]; after a total of 19 hours,all samples except the one with initial zinc concentration of 1.20%
same,initial zinc concentration of additional sample showing flocculation,[2]; two hours after mixing,0.299%
same,initial zinc concentrations of dilutions with visible flocculation,[2]; within 30 minutes from mixing with water,0.149% and 0.199%
same,deposition/occlusion on dentine surface,"[3]; 4 consecutive treatments, initial zinc 0.0747%, 10 minutes at 37° C. each",significant surface deposition
same,deposition/occlusion on dentine surface,"[3]; 12 consecutive treatments, initial zinc 0.0747%, 10 minutes at 37° C. each",complete surface coverage
same,visible precipitation during treatment,"[3]; 32-fold dilution, initial zinc 0.0747%, 10 minutes at 37° C.",no precipitation is observed by naked eyes
same,thickness of surface deposits,"[3]; after second treatment, 16-fold dilution, zinc about 0.149%",≥ 10 microns
same,thickness of surface deposits,"[3]; after third treatment, 16-fold dilution, zinc about 0.149%",≥ 25 microns
same,deposition/occlusion on dentine surface,"[3]; first treatment, neat solution diluted 16-fold, zinc about 0.149%, 1 hour at 37° C.",noticeable deposition
same,deposition/occlusion on dentine surface,"[3]; second treatment, 16-fold dilution, zinc about 0.149%, 1 hour at 37° C. each","complete surface coverage, including blocking of substantially all tubule openings"
same,deposition/occlusion on dentine surface,"[3]; third treatment, 16-fold dilution, zinc about 0.149%, 1 hour at 37° C. each",complete surface coverage and complete blocking of tubule openings
